According to the supplement of paper PMC5662764:
± gives the standard deviation of the averaged measurements.

Tests used:
Assay in all cases: normalised growth rate inhibition (GR value) relative to DMSO control (GR (1 = untreated growth, 0 = cytostasis, <0 = cytotoxic)); higher = less growth inhibition
Conditions in all cases: 72 h
BT20 = test system: BT20
Experimental: (§1)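 Breast cancer cell lines (BT-20, Hs 578T, MCF 10A, MCF7, MDA-MB-231, SK-BR-3) were plated in 384-well plates and treated 24 h later with drugs at six concentrations (0.04-10 µM). Viable cells were counted by Hoechst/dead-cell-stain imaging at 0 and 72 h. Counts were normalised to DMSO controls on the same plate to give the relative cell count and the growth-rate inhibition (GR) value; technical plate triplicates were averaged for each biological replicate.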

HS578T = test system: HS578T
Experimental: as §1

MCF10A = test system: MCF10A
Experimental: as §1

MCF7 = test system: MCF7
Experimental: as §1

MDAMB231 = test system: MDAMB231
Experimental: as §1

SKBR3 = test system: SKBR3
Experimental: as §1

| Structure (SMILES) | normalised growth rate inhibition (BT20; 0.04 µM) | normalised growth rate inhibition (BT20; 0.12 µM) | normalised growth rate inhibition (BT20; 0.37 µM) | normalised growth rate inhibition (BT20; 1.11 µM) | normalised growth rate inhibition (BT20; 3.33 µM) | normalised growth rate inhibition (BT20; 10 µM) | normalised growth rate inhibition (HS578T; 0.04 µM) | normalised growth rate inhibition (HS578T; 0.12 µM) | normalised growth rate inhibition (HS578T; 0.37 µM) | normalised growth rate inhibition (HS578T; 1.11 µM) | normalised growth rate inhibition (HS578T; 3.33 µM) | normalised growth rate inhibition (HS578T; 10 µM) | normalised growth rate inhibition (MCF10A; 0.04 µM) | normalised growth rate inhibition (MCF10A; 0.12 µM) | normalised growth rate inhibition (MCF10A; 0.37 µM) | normalised growth rate inhibition (MCF10A; 1.11 µM) | normalised growth rate inhibition (MCF10A; 3.33 µM) | normalised growth rate inhibition (MCF10A; 10 µM) | normalised growth rate inhibition (MCF7; 0.04 µM) | normalised growth rate inhibition (MCF7; 0.12 µM) | normalised growth rate inhibition (MCF7; 0.37 µM) | normalised growth rate inhibition (MCF7; 1.11 µM) | normalised growth rate inhibition (MCF7; 3.33 µM) | normalised growth rate inhibition (MCF7; 10 µM) | normalised growth rate inhibition (MDAMB231; 0.04 µM) | normalised growth rate inhibition (MDAMB231; 0.12 µM) | normalised growth rate inhibition (MDAMB231; 0.37 µM) | normalised growth rate inhibition (MDAMB231; 1.11 µM) | normalised growth rate inhibition (MDAMB231; 3.33 µM) | normalised growth rate inhibition (MDAMB231; 10 µM) | normalised growth rate inhibition (SKBR3; 0.04 µM) | normalised growth rate inhibition (SKBR3; 0.12 µM) | normalised growth rate inhibition (SKBR3; 0.37 µM) | normalised growth rate inhibition (SKBR3; 1.11 µM) | normalised growth rate inhibition (SKBR3; 3.33 µM) | normalised growth rate inhibition (SKBR3; 10 µM) |
| --- | --- | --- | --- | --- | --- | --- | --- | --- | --- | --- | --- | --- | --- | --- | --- | --- | --- | --- | --- | --- | --- | --- | --- | --- | --- | --- | --- | --- | --- | --- | --- | --- | --- | --- | --- | --- |
| Cc1nc(NC(=O)N2CCC[C@H]2C(N)=O)sc1-c1ccnc(C(C)(C)C(F)(F)F)c1 | 1.04 ± 0.017 | 0.979 ± 0.048 | 0.722 ± 0.027 | 0.553 ± 0.12 | 0.123 ± 0.047 | -0.157 ± 0.072 | 0.971 ± 0.012 | 0.9151 ± 0.001 | 0.871 ± 0.026 | 0.838 ± 0.026 | 0.762 ± 0.011 | 0.561 ± 0.051 | 0.976 ± 0.022 | 0.94 ± 0.041 | 0.896 ± 0.061 | 0.865 ± 0.064 | 0.77 ± 0.11 | 0.439 ± 0.14 | 0.871 ± 0.11 | 0.701 ± 0.1 | 0.508 ± 0.14 | 0.365 ± 0.11 | 0.204 ± 0.099 | -0.0344 ± 0.057 | 0.997 ± 0.058 | 0.986 ± 0.038 | 0.963 ± 0.048 | 0.935 ± 0.032 | 0.89 ± 0.015 | 0.65 ± 0.09 | 0.896 ± 0.061 | 0.811 ± 0.059 | 0.679 ± 0.051 | 0.553 ± 0.039 | 0.323 ± 0.11 | -0.0922 ± 0.15 |
| Cn1cc(-c2[nH]c3cc(NC(=O)[C@H](N)C4CCCCC4)cc4c3c2C=NNC4=O)cn1 | 0.886 ± 0.045 | 0.96 ± 0.035 | 0.9538 ± 0.0067 | 0.931 ± 0.027 | 0.8 ± 0.063 | 0.129 ± 0.15 | 0.956 ± 0.018 | 0.601 ± 0.064 | 0.107 ± 0.12 | -0.0219 ± 0.17 | -0.0376 ± 0.14 | -0.103 ± 0.15 | 0.9601 ± 0.0087 | 0.914 ± 0.022 | 0.83 ± 0.037 | 0.63 ± 0.071 | 0.267 ± 0.17 | -0.0312 ± 0.061 | 0.579 ± 0.056 | 0.411 ± 0.041 | 0.335 ± 0.04 | 0.235 ± 0.032 | 0.178 ± 0.018 | 0.0527 ± 0.038 | 0.903 ± 0.039 | 0.913 ± 0.087 | 0.747 ± 0.14 | 0.535 ± 0.21 | 0.297 ± 0.22 | -0.0135 ± 0.14 | -0.00482 ± 0.19 | -0.09 ± 0.2 | -0.136 ± 0.17 | -0.151 ± 0.18 | -0.174 ± 0.14 | -0.183 ± 0.2 |
| N#CC(c1ccnc(NCCc2cccnc2)n1)c1nc2ccccc2s1 (stereo not drawn) | 0.879 ± 0.031 | 0.922 ± 0.034 | 0.999 ± 0.044 | 1.03 ± 0.05 | 1.05 ± 0.035 | 1 ± 0.11 | 0.988 ± 0.016 | 1.01 ± 0.022 | 1.023 ± 0.0087 | 1.025 ± 0.0078 | 1.03 ± 0.023 | 0.932 ± 0.06 | 0.993 ± 0.015 | 0.986 ± 0.011 | 0.982 ± 0.011 | 0.987 ± 0.012 | 0.987 ± 0.016 | 0.707 ± 0.14 | 0.812 ± 0.044 | 0.877 ± 0.091 | 0.923 ± 0.12 | 0.883 ± 0.076 | 0.945 ± 0.085 | 0.659 ± 0.071 | 0.906 ± 0.026 | 0.905 ± 0.023 | 0.92 ± 0.023 | 0.94 ± 0.066 | 0.95 ± 0.096 | 0.726 ± 0.076 | 0.669 ± 0.056 | 0.809 ± 0.11 | 0.876 ± 0.081 | 0.84 ± 0.098 | 0.749 ± 0.13 | 0.383 ± 0.056 |
| Nc1ccc(C(=O)Nc2cccc(-c3nc(N4CCOCC4)c4oc5ncccc5c4n3)c2)cn1 | 1.06 ± 0.025 | 0.999 ± 0.032 | 0.938 ± 0.029 | 0.746 ± 0.053 | 0.577 ± 0.07 | 0.0483 ± 0.094 | 1.02 ± 0.029 | 0.984 ± 0.013 | 0.972 ± 0.033 | 0.865 ± 0.022 | 0.668 ± 0.029 | 0.13 ± 0.053 | 1.015 ± 0.0057 | 0.989 ± 0.01 | 0.951 ± 0.022 | 0.824 ± 0.025 | 0.734 ± 0.051 | 0.301 ± 0.043 | 1.06 ± 0.031 | 0.963 ± 0.034 | 0.856 ± 0.046 | 0.606 ± 0.041 | 0.37 ± 0.12 | -0.043 ± 0.35 | 1.04 ± 0.032 | 0.954 ± 0.058 | 0.869 ± 0.082 | 0.747 ± 0.094 | 0.657 ± 0.14 | 0.0924 ± 0.24 | 1.12 ± 0.043 | 1.03 ± 0.053 | 1.03 ± 0.075 | 0.89 ± 0.072 | 0.769 ± 0.052 | 0.17 ± 0.047 |
| O=C(NOCC1CC1)c1ccc(F)c(F)c1Nc1ccc(I)cc1Cl | 1.05 ± 0.03 | 1.032 ± 0.009 | 1.01 ± 0.043 | 0.9868 ± 0.0023 | 0.95 ± 0.018 | 0.289 ± 0.18 | 0.783 ± 0.081 | 0.686 ± 0.097 | 0.605 ± 0.12 | 0.528 ± 0.12 | 0.476 ± 0.094 | 0.267 ± 0.067 | 0.661 ± 0.016 | 0.547 ± 0.058 | 0.454 ± 0.059 | 0.371 ± 0.079 | 0.279 ± 0.068 | 0.165 ± 0.07 | 0.915 ± 0.15 | 0.81 ± 0.13 | 0.718 ± 0.059 | 0.646 ± 0.074 | 0.574 ± 0.034 | 0.344 ± 0.037 | 0.992 ± 0.058 | 0.8538 ± 0.0075 | 0.77 ± 0.023 | 0.63 ± 0.057 | 0.513 ± 0.05 | 0.181 ± 0.087 | 1.08 ± 0.054 | 1.05 ± 0.048 | 1.04 ± 0.023 | 1.02 ± 0.031 | 0.972 ± 0.077 | 0.611 ± 0.061 |
| O=C(NOC[C@H](O)CO)c1ccc(F)c(F)c1Nc1ccc(I)cc1F | 0.907 ± 0.095 | 0.864 ± 0.059 | 0.838 ± 0.1 | 0.708 ± 0.14 | 0.565 ± 0.086 | 0.439 ± 0.064 | 0.513 ± 0.088 | 0.402 ± 0.055 | 0.328 ± 0.023 | 0.247 ± 0.061 | 0.119 ± 0.078 | 0.0542 ± 0.11 | 0.263 ± 0.072 | 0.184 ± 0.072 | 0.175 ± 0.077 | 0.134 ± 0.083 | 0.0915 ± 0.085 | 0.0555 ± 0.074 | 0.608 ± 0.044 | 0.539 ± 0.02 | 0.503 ± 0.05 | 0.442 ± 0.039 | 0.254 ± 0.06 | 0.0358 ± 0.091 | 0.605 ± 0.043 | 0.413 ± 0.029 | 0.264 ± 0.033 | 0.0779 ± 0.1 | -0.0448 ± 0.12 | -0.0975 ± 0.13 | 0.953 ± 0.066 | 0.902 ± 0.057 | 0.913 ± 0.049 | 0.728 ± 0.027 | 0.445 ± 0.05 | 0.196 ± 0.14 |
| O=C1NC(=O)/C(=C/c2ccc3nccc(-c4ccncc4)c3c2)S1 | 0.934 ± 0.086 | 0.638 ± 0.15 | 0.192 ± 0.15 | -0.221 ± 0.082 | -0.352 ± 0.1 | -0.44 ± 0.1 | 0.948 ± 0.035 | 0.835 ± 0.057 | 0.647 ± 0.083 | 0.372 ± 0.044 | 0.0713 ± 0.13 | -0.118 ± 0.12 | 0.987 ± 0.039 | 0.887 ± 0.11 | 0.608 ± 0.17 | 0.143 ± 0.074 | -0.0425 ± 0.058 | -0.115 ± 0.059 | 0.983 ± 0.059 | 0.844 ± 0.057 | 0.581 ± 0.08 | 0.224 ± 0.075 | -0.0358 ± 0.081 | -0.203 ± 0.081 | 1.03 ± 0.083 | 0.992 ± 0.052 | 0.912 ± 0.049 | 0.513 ± 0.18 | 0.131 ± 0.25 | -0.0544 ± 0.27 | 0.987 ± 0.084 | 0.81 ± 0.14 | 0.541 ± 0.15 | 0.0268 ± 0.1 | -0.291 ± 0.12 | -0.421 ± 0.12 |
| c1ccc2c(-c3cnn4cc(-c5ccc(N6CCNCC6)cc5)cnc34)ccnc2c1 | 0.994 ± 0.036 | 0.905 ± 0.039 | 0.915 ± 0.093 | 0.645 ± 0.21 | -0.08 ± 0.34 | -0.507 ± 0.082 | 0.952 ± 0.025 | 0.911 ± 0.011 | 0.897 ± 0.027 | 0.862 ± 0.072 | 0.244 ± 0.58 | -0.361 ± 0.083 | 0.999 ± 0.014 | 0.9817 ± 0.0032 | 0.9705 ± 0.0076 | 0.953 ± 0.032 | 0.661 ± 0.34 | -0.396 ± 0.11 | 1.08 ± 0.047 | 1 ± 0.075 | 1.01 ± 0.072 | 0.868 ± 0.044 | 0.258 ± 0.34 | -0.368 ± 0.019 | 0.996 ± 0.073 | 0.938 ± 0.084 | 0.925 ± 0.072 | 0.727 ± 0.056 | 0.0105 ± 0.45 | -0.355 ± 0.038 | 1.09 ± 0.11 | 1.04 ± 0.11 | 1.09 ± 0.056 | 0.987 ± 0.048 | -0.0902 ± 0.23 | -0.515 ± 0.11 |
